Measured values: ChEMBL document CHEMBL1152844, “Synthesis and anti-HIV studies of 2- and 3-adamantyl-substituted thiazolidin-4-ones” (Eur J Med Chem, 2009)
pEC50: −log10 of the molar value. Active and inactive are the calls of the source. No cut-off for these calls is given here.

Legend:
Human alphaherpesvirus 1 = test: Antiviral activity against Herpes simplex virus type 1 infected in HEL cells; assay type: functional, organism-based
[1] = Selectivity index, ratio of CC50 for human CEM cells to EC50 for HIV1 3B; assay type: toxicity, cell-based, CCRF-CEM; conditions: read-out: Ratio CC50/EC50
[2] = test system: Human immunodeficiency virus 2; test: Antiviral activity against HIV2 ROD infected in human CEM cells assessed as inhibition of virus-induced cytopathicity after 4 days; assay type: functional, organism-based; conditions: Human immunodeficiency virus 2, ROD, CCRF-CEM, 96 h
[3] = test system: Respiratory syncytial virus; test: Antiviral activity against Respiratory syncytial virus infected in human HeLa cells; assay type: functional, organism-based
[4] = test system: Human immunodeficiency virus 1; test: Antiviral activity against HIV1 3B infected in human CEM cells assessed as inhibition of virus-induced cytopathicity after 4 days; assay type: functional, organism-based; conditions: Human immunodeficiency virus 1, 3B, CCRF-CEM, 96 h
Influenza B virus = test: Antiviral activity against Influenza virus type B infected in MDCK cells; assay type: functional, organism-based
Influenza A virus [5] = test: Antiviral activity against Influenza virus type A H3N2 infected in MDCK cells; assay type: functional, organism-based
Vaccinia virus = test: Antiviral activity against Vaccinia virus infected in HEL cells; assay type: functional, organism-based; conditions: Orthopoxvirus vaccinia
[6] = test system: Mammalian orthoreovirus 1; test: Antiviral activity against Reovirus 1 infected in african green monkey Vero cells; assay type: functional, organism-based
Feline coronavirus = test: Antiviral activity against Feline coronavirus infected in crandel feline kidney cells; assay type: functional, organism-based
Coxsackievirus B4 [7] = test: Antiviral activity against Coxsackievirus B4 infected in african green monkey Vero cells; assay type: functional, organism-based
CCRF-CEM = test: Cytotoxicity against HIV-infected human CEM cells; assay type: cell-based; conditions: ccrf-cem
Punta Toro virus = test: Antiviral activity against Punta Toro virus infected in african green monkey Vero cells; assay type: functional, organism-based
Sindbis virus = test: Antiviral activity against Sindbis virus infected in african green monkey Vero cells; assay type: functional, organism-based
Human respirovirus 3 = test: Antiviral activity against Parainfluenza virus type 3 infected in african green monkey Vero cells; assay type: functional, organism-based
[8] = test system: Vesicular stomatitis virus; test: Antiviral activity against Vesicular stomatitis virus infected in HEL cells; assay type: functional, organism-based
[9] = test system: Vesicular stomatitis virus; test: Antiviral activity against Vesicular stomatitis virus infected in human HeLa cells; assay type: functional, organism-based
Influenza A virus [10] = test: Antiviral activity against Influenza virus type A H1N1 infected in MDCK cells; assay type: functional, organism-based
Coxsackievirus B4 [11] = test: Antiviral activity against Coxsackievirus B4 infected in human HeLa cells; assay type: functional, organism-based
Human alphaherpesvirus 2 = test: Antiviral activity against Herpes simplex virus type 2 infected in HEL cells; assay type: functional, organism-based

Row | SMILES | Activity (Human alphaherpesvirus 1) | selectivity ratio [1] | pEC50 [2] | Activity [3] | pEC50 [4] | Activity (Influenza B virus) | Activity (Influenza A virus [5]) | Activity (Vaccinia virus) | Activity [6] | Activity (Feline coronavirus) | Activity (Coxsackievirus B4 [7]) | CC50 (CCRF-CEM) | Activity (Punta Toro virus) | Activity (Sindbis virus) | Activity (Human respirovirus 3) | Activity [8] | Activity [9] | Activity (Influenza A virus [10]) | Activity (Coxsackievirus B4 [11]) | Activity (Human alphaherpesvirus 2)
1 | CN(C)CCN1C(=O)CSC1CC12CC3CC(CC(C3)C1)C2 (centres undefined) | inactive | < 1.4 | ≤ 4.21 | inactive | 4.28 | inactive | inactive | inactive | inactive | inactive | inactive | 77 µM | inactive | inactive | inactive | inactive | inactive | inactive | inactive | inactive
2 | O=C1CSC(c2c(F)cccc2Cl)N1CCC12CC3CC(CC(C3)C1)C2 (centres undefined) | inactive | 4.7 | ≤ 5.00 | inactive | 5.42 | inactive | inactive | inactive | inactive | inactive | inactive | 18.5 µM | inactive | inactive | inactive | inactive | inactive | inactive | inactive | inactive
3 | Cc1cc(Cl)nc(N2C(=O)CSC2CC23CC4CC(CC(C4)C2)C3)n1 (centres undefined) | inactive | < 1.9 | ≤ 4.28 | inactive | < 4.28 | inactive | inactive | inactive | inactive | inactive | inactive | 102 µM | inactive | inactive | inactive | inactive | inactive | inactive | inactive | inactive
4 | O=C1CSC(c2c(F)cccc2Cl)N1CC12CC3CC(CC(C3)C1)C2 (centres undefined) | inactive | 10 | ≤ 4.98 | inactive | 5.70 | inactive | inactive | inactive | inactive | inactive | inactive | 20.2 µM | inactive | inactive | inactive | inactive | inactive | inactive | inactive | inactive
5 | Cc1cc(C)nc(N2C(=O)CSC2C23CC4CC(CC(C4)C2)C3)n1 (centres undefined) | inactive | 182 | ≤ 4.24 | inactive | 6.17 | inactive | inactive | inactive | inactive | inactive | inactive | 122 µM | inactive | inactive | inactive | inactive | inactive | inactive | inactive | inactive
6 | Cc1ccnc2c1NC(=O)c1cccnc1N2C1CC1 [NEVIRAPINE] | – | – | < 4.30 | – | – | – | – | – | – | – | – | > 50 µM | – | – | – | – | – | – | – | –
7 | Cc1cc(Cl)nc(N2C(=O)CSC2C23CC4CC(CC(C4)C2)C3)n1 (centres undefined) | inactive | < 5 | 3.92 | inactive | ≤ 4.26 | inactive | inactive | inactive | inactive | inactive | inactive | > 275 µM | inactive | inactive | inactive | inactive | inactive | inactive | inactive | inactive
8 | COc1cc(C2SCC(=O)N2CC23CC4CC(CC(C4)C2)C3)cc(OC)c1OC (centres undefined) | inactive | < 1.6 | ≤ 4.96 | inactive | ≤ 4.96 | inactive | inactive | inactive | inactive | inactive | inactive | 18 µM | inactive | inactive | inactive | inactive | inactive | inactive | inactive | inactive
9 | Cc1cc(N2C(=O)CSC2C23CC4CC(CC(C4)C2)C3)nc(C)n1 (centres undefined) | inactive | < 1.6 | ≤ 4.24 | inactive | ≤ 4.24 | inactive | inactive | inactive | inactive | inactive | inactive | 94 µM | inactive | inactive | inactive | inactive | inactive | inactive | inactive | inactive
10 | Cc1cc(C)nc(N2C(=O)CSC2CC23CC4CC(CC(C4)C2)C3)c1 (centres undefined) | inactive | < 2 | ≤ 4.27 | inactive | < 4.27 | inactive | inactive | inactive | inactive | inactive | inactive | 115 µM | inactive | inactive | inactive | inactive | inactive | inactive | inactive | inactive
11 | Cc1cc(N2C(=O)CSC2CC23CC4CC(CC(C4)C2)C3)nc(C)n1 (centres undefined) | inactive | < 1.9 | ≤ 4.95 | inactive | ≤ 4.95 | inactive | inactive | inactive | inactive | inactive | inactive | 22.1 µM | inactive | inactive | inactive | inactive | inactive | inactive | inactive | inactive
12 | Cc1ccnc(N2C(=O)CSC2CC23CC4CC(CC(C4)C2)C3)c1 (centres undefined) | inactive | 1.6 | 4.66 | inactive | 4.74 | inactive | inactive | inactive | inactive | inactive | inactive | 29.3 µM | inactive | inactive | inactive | inactive | inactive | inactive | inactive | inactive
13 | Cc1cc(C)nc(N2C(=O)CSC2CC23CC4CC(CC(C4)C2)C3)n1 (centres undefined) | inactive | 3 | 4.52 | inactive | 5.07 | inactive | inactive | inactive | inactive | inactive | inactive | 27 µM | inactive | inactive | inactive | inactive | inactive | inactive | inactive | inactive
14 | O=c1[nH]cnc2c1ncn2[C@H]1CC[C@@H](CO)O1 [DIDANOSINE] | – | > 54 | – | – | – | – | – | – | – | – | – | > 250 µM | – | – | – | – | – | – | – | –
